Reference: patent US20100063041A1, “NOVEL PHENYLPROPIONIC ACID DERIVATIVES AS PEROXISOME PROLIFERATOR-ACTIVATED GAMMA RECEPTOR MODULATORS, METHOD OF THE SAME, AND PHARMACEUTICAL COMPOSITION COMPRISING THE SAME” (priority 2007, published 2010)

Biological target: T1, PPAR-γ and Trap220 (Homo sapiens, UniProt P37231)
T1 construct: expressed in transfected cells; host or cells: CHO-K1 (CCL-61, ATCC)
T1 sequence (P37231 238-503 limits assumed): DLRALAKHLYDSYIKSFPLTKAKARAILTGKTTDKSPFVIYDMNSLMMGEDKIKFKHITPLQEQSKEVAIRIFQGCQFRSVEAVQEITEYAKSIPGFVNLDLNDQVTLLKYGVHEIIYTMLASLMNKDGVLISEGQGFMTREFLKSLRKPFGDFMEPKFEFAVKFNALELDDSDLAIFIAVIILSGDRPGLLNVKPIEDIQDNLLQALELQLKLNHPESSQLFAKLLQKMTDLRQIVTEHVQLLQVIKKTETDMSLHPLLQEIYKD
Experiment: binding capacity with Trap220 (mammalian two-hybrid assay) in CHO-K1 cells
Format: cell-based
Conditions: compared to the positive control drug rosiglitazone, FIG. 1
Experimental: Following induction of transient intracellular expression of PPAR-γ and Trap220, the binding capacity of the inventive compounds to a cofactor Trap220 after activation of PPAR-γ by the action of the inventive compounds was evaluated (mammalian two-hybrid assay).
For this purpose, a […] ovary cell line CHO-K1 (CCL-61, ATCC) was used as a test cell line. DNA constructs used in this assay were an expression vector pVP16 (Clontech) constructed to express a fusion of a human PPAR-γ2 ligand-binding domain with an activation domain of the […], and an expression vector pM (Clontech) constructed to express a fusion of human Trap220 with the GAL4 DNA-binding domain. Rosiglitazone maleate (Alcon Biosciences Private Limited), which is clinically used as a PPAR-γ agonist, was employed as a control drug.
The CHO-K1 cells were transiently transfected with two DNA constructs expressing the chimeric receptors and DNA constructs comprising 5 copies of the GAL4 DNA-binding domain and capable of inducing expression of firefly luciferase or Renilla luciferase using a Lipofectamine Plus reagent (Invitrogen, USA). Subsequent processes were carried out in the same manner as in the transactivation assay. The experimental results were expressed as an increase of the responsiveness vs. the negative control group with no addition of the drug.

CCO[C@@H](Cc1ccc(OCc2sc(-c3ccc(-c4cc(C)no4)cc3)cc2C)cc1)C(=O)[O-].[Na+] [Example 43, sodium (S)-2-ethoxy-3-(4-((3-methyl-5-(4-(3-methylisoxazol-5-yl)phenyl)thiophen-2-yl)methoxy)phenyl)propanoate]
responsiveness (binding capacity with Trap220): reduced responsiveness
